Experimental findings from patent US11304907B2, “Pharmaceutical compositions containing a DGAT1 inhibitor” (Novartis AG, priority 2010, dated 2022) are described below.

Structures can show the parent of a compound that is named as a salt.

A short description of series [1]: Physicochemical properties of the drug substance. The text has this: However, the compound of formula (I), or a pharmaceutically acceptable salt thereof, in particular the sodium salt thereof, is a drug substance which is difficult to formulate due to its physicochemical properties. […] It is also plate like, very fluffy, and sticky in nature.
The nature of series [2]: Disintegrant compatibility / stress storage. Format: physicochemical. The conditions noted are these: due to the presence of residual formaldehyde. Here is the method:
It can be seen from the above table that core tablets formulated with Cross linked polyvinyl pyrollidone (PVP-XL) show a slower release compared to the Sodium Starch Glycollate (SSG), and Croscarmellose Sodium (Ac-Di-Sol) based formulations. […] Formulations containing Croscarmellose Sodium (Ac-Di-Sol) were also found to turn to yellow when prepared and exposed to 50° C. dry as well as 50° C./75% […] humidity for 4 weeks.

Turning to `O=C(O)C[C@H]1CC[C@H](c2ccc(-c3ccc(Nc4ccc(C(F)(F)F)nc4)cn3)cc2)CC1` [compound of formula (II), trans-(4-{4-[5-(6-Trifluoromethyl-pyridin-3-ylamino)-pyridin-2-yl]-phenyl}-cyclohexyl)-acetic acid, sodium salt], the moisture uptake result in series [1] (at 95% relative humidity) is “high moisture uptake”. In series [1] (drug substance, sodium salt), the hygroscopicity entry was “hygroscopic” and the solubility result is recorded as “poorly soluble”. Also, the “compatibility with Cross linked polyvinyl pyrollidone (PVP-XL)” value in series [2] is “incompatible”.
